According to paper PMC9138994 (Biomolecules, 2022):
Values joined by “and” are separate entries in the source; they are usually repeats but may differ in a detail not shown here. Identical values can stand only once. Marks after values point to notes of the source that are not given here.

Key:
[1] = system: D1R; design: method as in earlier work; conditions: ref 19 (Vanover et al.); cited from earlier work
[2] = target: T1, hH1R (Homo sapiens, UniProt P35367); assay: [3H]-pyrilamine displacement assay at histamine H1R (CHO-K1 cells); format: binding; conditions: CHO-K1 cells stably expressing human H1R; [3H]-pyrilamin; read-out: Ki (n), H1R
T1 construct: expressed in transfected cells; host or cells: CHO-K1
Method: To determine the human H1R affinity, compounds and reference substances were tested in a [^3H]-pyrilamine displacement assay. The assay was conducted with membrane preparations of CHO-K1 cells stably expressing hH1R. Transfection, cell culture, and membrane preparation were described in detail by Smit and colleagues. For the competition binding assay, membrane fractions (40 μg/well in a final volume of 0.2 mL binding buffer) were incubated with [^3H]-pyrilamine (1 nM) and the test compounds in different concentrations for 120 min at r.t. under shaking. The experimental assays were carried out in triplicate with at least six appropriate concentrations between 0.1 nM and 100 μM for the test compounds. Nonspecific binding was evaluated in the presence of the standard H1R antagonist chlorpheniramine hydrogen maleate at a concentration of 10 µM. The following steps were performed as described before.

[3] = target: T2, hD3R (Homo sapiens, UniProt P35462); assay: Radioligand displacement assay at dopamine D3R ([3H]-spiperone, CHO-K1 cells); format: binding; conditions: CHO-K1 cells stably expressing human D3R, read-out: Ki (n), D3R
T2 construct: expressed in transfected cells; host or cells: CHO-K1
Method: To determine the human D3R affinity, compounds and reference substances were tested in a [^3H]-spiperone competition binding assay as described by Bautista-Aguilera et al.. The assay was conducted with membrane preparations of CHO-K1 cells stably expressing hD3R. Membrane fractions (20 μg/well in a final volume of 0.2 mL binding buffer) were incubated with [^3H]-spiperone (0.2 nM) and the test compounds for 120 min at r.t. under shaking. Assays were run in triplicates with at least six appropriate concentrations between 0.1 nM and 100 µM for the test compound. Nonspecific binding was determined in the presence of 10 µM haloperidol.

[4] = target: T3, human histamine H3 receptor (Homo sapiens, UniProt Q9Y5N1); assay: Radioligand displacement assay at histamine H3 receptor ([3H]-Nα-methylhistamine, HEK293 membranes); format: binding; conditions: HEK293 cells stably expressing human H3R, read-out: Ki [CI 95%] (n), H3R
T3 construct: expressed in transfected cells; host or cells: HEK293
Method: Radioligand displacement assays were performed as described previously. HEK293 cells stably expressing the human histamine H3 receptor [37] were grown in Dulbecco’s modified Eagle’s medium, supplemented with 2 mM glutamine, 10 mM HEPES, 10% fetal bovine serum, and 10 μL/mL penicillin/streptomycin in an atmosphere of 5% CO2 at 37 °C. Cells were grown to confluence. The medium was removed, and cells were collected in 15 mL ice-cold phosphate-buffered saline (PBS) (140 mM NaCl, 3 mM KCl, 1.5 mM KH2PO4, 8 mM Na2HPO4, pH 7.4). The cell suspension was centrifuged two times at 3000× g for 10 min with subsequent aspiration in 20 mL of PBS buffer at 4 °C. […]
Competition binding experiments were carried out as follows: membranes (20 μg/well in a final volume of 0.2 mL binding buffer) were incubated with [^3H]-N^α-methylhistamine (2 nM), purchased from PerkinElmer (Waltham, MA, USA), and different concentrations of the respective test ligand. […] Non-specific binding was determined in the presence of the selectively acting histamine H3 receptor inverse agonist/antagonist pitolisant (10 μM). […] Liquid scintillation counting using a PerkinElmer MicroBeta Trilux scintillation counter was used to determine the amount of radioactivity collected on the filter used in the current experiment. […]

[5] = target: T4, hD1R (Homo sapiens, UniProt P21728); assay: Radioligand displacement assay at dopamine D1R ([3H]-SCH23390, HEK293 cells); format: binding; conditions: HEK293 cells stably expressing human D1R, read-out: Ki (n), D1R
T4 construct: expressed in transfected cells; host or cells: HEK293
Method: hD1R affinity was determined according to the procedure of hD3R [43]. Membrane preparations of HEK293 cells stably expressing the hD1R were used with 20 µg/well. [^3H]-SCH23390 was used as radioligand in a concentration of 0.3 nM. Nonspecific binding was determined in the presence of 100 µM fluphenazine. The following steps were performed as describedbefore.

[6] = target: T5, human serotonin 5-HT2A receptor (Homo sapiens, UniProt P28223); assay: Radioligand displacement assay at 5-HT2A ([3H]-ketanserin, CHO-K1 cells); format: binding; conditions: CHO-K1 cells expressing human 5-HT2A, read-out: Ki ± SD (n), 5-HT2A
T5 construct: host or cells: CHO-K1

[7] = target: T6, hH4R (Homo sapiens, UniProt P04899+Q9H3N8); assay: [3H]-histamine competition binding assay at histamine H4R (Sf9 membranes); conditions: Sf9 cell membranes expressing human H4R with Gαi2 and Gβ1γ2, read-out: Ki (n), H4R
T6 construct: expressed in transfected cells; host or cells: Sf9 insect cells
Method: To determine the human H4R affinity, compounds and reference structures were examined in a [^3H]-histamine dihydrochloride competition binding assay. Cell culture and membrane preparation of Sf9 cells co-expressing hH4R-Gαi2 fusion protein with Gβ1γ2 was prepared as described by Schneider and co-workers.
The competition binding assay has been performed as described previously by Sander, Kottke, and Schwed from the Stark Lab. Cell membranes were sedimented by 3 min centrifugation at 25 °C and […] and were resuspended in binding buffer. Competition binding experiments were carried out by incubating the membranes (40 µg/0.2 mL binding buffer) and [^3H]-histamine dihydrochloride (10 nM) with test compounds for 60 min at r.t. Assays were run in triplicates with four to seven appropriate concentrations between 0.1 nM and 100 µM for the test compound. Nonspecific binding was determined in the presence of 100 µM JNJ7777120. The following steps were performed as described before.

[8] = target: T7, human D2L (Homo sapiens, UniProt P14416); assay: Radioligand displacement assay at dopamine D2R ([3H]-raclopride, HEK293 cells); format: binding; conditions: HEK293 cells stably expressing human D2R, read-out: Ki ± SD (n), D2R
T7 construct: expressed in transfected cells; host or cells: HEK293
T7 sequence (P14416 whole entry): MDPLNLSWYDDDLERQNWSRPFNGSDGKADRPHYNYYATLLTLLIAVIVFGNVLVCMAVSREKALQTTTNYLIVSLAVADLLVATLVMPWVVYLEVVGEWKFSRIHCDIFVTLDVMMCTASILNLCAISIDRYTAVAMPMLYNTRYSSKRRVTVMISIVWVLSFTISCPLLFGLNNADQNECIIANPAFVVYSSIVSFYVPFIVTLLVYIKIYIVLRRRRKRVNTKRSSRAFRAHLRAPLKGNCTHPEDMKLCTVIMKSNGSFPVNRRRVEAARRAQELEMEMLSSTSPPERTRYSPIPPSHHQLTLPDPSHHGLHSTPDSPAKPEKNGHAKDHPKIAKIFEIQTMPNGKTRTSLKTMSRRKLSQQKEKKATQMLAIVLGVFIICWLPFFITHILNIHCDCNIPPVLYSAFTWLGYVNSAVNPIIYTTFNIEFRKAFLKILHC

T3 sequence (Q9Y5N1 whole entry): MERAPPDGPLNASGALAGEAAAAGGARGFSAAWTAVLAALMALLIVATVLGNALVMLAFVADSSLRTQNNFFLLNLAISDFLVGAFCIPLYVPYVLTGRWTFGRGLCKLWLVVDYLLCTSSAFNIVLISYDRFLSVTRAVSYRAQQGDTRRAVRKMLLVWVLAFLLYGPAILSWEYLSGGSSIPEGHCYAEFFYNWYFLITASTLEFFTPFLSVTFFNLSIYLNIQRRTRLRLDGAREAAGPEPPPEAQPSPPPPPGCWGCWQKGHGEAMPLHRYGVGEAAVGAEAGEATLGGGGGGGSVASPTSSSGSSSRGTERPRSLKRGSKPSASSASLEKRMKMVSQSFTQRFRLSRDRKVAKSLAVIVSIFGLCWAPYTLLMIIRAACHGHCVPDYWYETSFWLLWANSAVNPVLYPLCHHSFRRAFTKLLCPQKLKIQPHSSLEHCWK
T5 sequence (P28223 whole entry): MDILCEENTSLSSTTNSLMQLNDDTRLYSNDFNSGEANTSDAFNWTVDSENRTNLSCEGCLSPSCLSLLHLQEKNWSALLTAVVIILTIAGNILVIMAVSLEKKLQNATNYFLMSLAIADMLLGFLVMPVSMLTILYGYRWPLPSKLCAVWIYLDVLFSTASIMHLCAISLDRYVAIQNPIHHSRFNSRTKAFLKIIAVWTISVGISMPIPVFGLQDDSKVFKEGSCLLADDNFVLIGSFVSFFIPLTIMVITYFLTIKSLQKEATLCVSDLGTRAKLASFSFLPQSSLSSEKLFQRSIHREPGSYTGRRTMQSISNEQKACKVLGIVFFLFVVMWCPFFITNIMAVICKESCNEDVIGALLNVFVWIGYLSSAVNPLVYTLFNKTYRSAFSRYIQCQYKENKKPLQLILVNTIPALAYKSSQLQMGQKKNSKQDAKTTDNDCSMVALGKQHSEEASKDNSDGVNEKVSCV
T1 sequence (P35367 whole entry): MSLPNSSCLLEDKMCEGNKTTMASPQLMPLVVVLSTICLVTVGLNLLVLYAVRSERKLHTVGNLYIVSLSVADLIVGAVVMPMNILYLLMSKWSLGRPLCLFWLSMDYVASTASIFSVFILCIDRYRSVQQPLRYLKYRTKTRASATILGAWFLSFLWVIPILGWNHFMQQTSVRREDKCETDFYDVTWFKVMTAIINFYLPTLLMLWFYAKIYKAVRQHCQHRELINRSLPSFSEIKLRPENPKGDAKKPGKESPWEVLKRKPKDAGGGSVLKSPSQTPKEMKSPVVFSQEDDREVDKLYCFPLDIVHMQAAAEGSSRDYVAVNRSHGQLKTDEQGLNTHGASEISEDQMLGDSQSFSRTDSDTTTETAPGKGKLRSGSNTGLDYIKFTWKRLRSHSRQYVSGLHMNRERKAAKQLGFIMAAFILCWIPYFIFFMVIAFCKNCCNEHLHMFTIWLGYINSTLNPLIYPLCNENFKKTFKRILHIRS
T6 sequence (Q9H3N8+P04899 fused): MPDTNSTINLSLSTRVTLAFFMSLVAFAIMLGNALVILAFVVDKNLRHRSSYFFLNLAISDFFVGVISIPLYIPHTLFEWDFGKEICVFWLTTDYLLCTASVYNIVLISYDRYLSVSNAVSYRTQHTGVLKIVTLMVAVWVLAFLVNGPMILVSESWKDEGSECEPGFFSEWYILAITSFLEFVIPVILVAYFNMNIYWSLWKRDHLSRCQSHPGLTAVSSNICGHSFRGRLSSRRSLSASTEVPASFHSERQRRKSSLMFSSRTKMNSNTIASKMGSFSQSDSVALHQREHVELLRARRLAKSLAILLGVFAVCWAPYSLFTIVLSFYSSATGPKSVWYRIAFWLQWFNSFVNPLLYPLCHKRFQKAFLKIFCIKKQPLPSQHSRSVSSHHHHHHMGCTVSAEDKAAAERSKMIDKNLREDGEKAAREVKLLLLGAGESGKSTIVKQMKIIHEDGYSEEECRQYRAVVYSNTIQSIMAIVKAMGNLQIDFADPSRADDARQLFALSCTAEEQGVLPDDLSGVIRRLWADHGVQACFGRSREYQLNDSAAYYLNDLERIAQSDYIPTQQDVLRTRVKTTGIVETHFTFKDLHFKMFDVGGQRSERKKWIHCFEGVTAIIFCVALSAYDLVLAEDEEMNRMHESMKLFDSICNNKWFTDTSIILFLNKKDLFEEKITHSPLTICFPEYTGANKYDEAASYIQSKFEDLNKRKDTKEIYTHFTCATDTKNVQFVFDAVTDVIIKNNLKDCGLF
T4 sequence (P21728 whole entry): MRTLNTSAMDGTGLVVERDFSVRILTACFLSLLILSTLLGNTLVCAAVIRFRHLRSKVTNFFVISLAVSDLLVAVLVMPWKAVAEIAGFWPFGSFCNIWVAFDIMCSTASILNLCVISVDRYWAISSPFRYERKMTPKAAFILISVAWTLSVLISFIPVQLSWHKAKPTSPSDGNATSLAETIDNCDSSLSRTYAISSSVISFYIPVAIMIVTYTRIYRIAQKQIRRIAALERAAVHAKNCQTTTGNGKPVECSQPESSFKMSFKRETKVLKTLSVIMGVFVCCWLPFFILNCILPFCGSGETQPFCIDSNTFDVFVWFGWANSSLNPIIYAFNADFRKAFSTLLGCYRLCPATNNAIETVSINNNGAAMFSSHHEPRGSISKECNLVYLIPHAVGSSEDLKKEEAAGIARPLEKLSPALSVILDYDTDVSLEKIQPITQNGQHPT
T2 sequence (P35462 whole entry): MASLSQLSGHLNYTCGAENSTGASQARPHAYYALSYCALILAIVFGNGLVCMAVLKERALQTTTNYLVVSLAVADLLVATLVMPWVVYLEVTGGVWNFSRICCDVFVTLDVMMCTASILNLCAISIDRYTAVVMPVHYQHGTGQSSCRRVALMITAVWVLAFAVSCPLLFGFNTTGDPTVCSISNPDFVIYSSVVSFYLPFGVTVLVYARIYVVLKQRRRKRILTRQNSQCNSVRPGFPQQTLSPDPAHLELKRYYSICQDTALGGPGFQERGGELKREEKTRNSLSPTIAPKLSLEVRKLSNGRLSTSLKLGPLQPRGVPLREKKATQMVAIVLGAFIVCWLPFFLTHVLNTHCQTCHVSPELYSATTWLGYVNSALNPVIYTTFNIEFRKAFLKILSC

Row | Structure (SMILES) | inhibition at 10 µM, D1R [1] | Ki [2] | Ki [3] | Ki [4] | Ki [5] | Ki [6] | Ki [7] | Ki [8]
1 | CC(C)COc1ccc(CNC(=O)N(Cc2ccc(F)cc2)C2CCN(C)CC2)cc1 [Pimavanserin, reference compound] | inhibition at 10 µM: <50% ^a |  |  |  |  |  |  | 
2 | CN1CCC(N(Cc2ccc(F)cc2)C(=O)NCc2ccc(OCCCN3CCCCC3)cc2)CC1 [ST-2300, 1-(4-Fluorobenzyl)-1-(1-methylpiperidin-4-yl)-3-{4-[3-(piperidin-1-yl)propoxy]benzyl}urea] |  | > 5000 nM | > 10000 nM | 14 nM and 14.4 nM | > 10000 nM | 1300 ± 331 nM | > 1000 nM | > 10000 nM
